Test results published in ChEMBL document CHEMBL3421618, “2,6,9-Trisubstituted purines as CRK3 kinase inhibitors with antileishmanial activity in vitro” (Bioorg Med Chem Lett, 2015).

Assays:
[1] = Cytotoxicity against human BJ cells assessed as cell viability at 30 uM after 72 hrs by fluorescence assay relative to control
Leishmania = settings: at 30 µM
Description: Inhibition of Leishmania CRK3/CYC6 using histone H1/[gamma33-P]ATP as substrate at 30 uM after 30 mins relative to control

[2] = Inhibition of Leishmania CRK3/CYC6 using histone H1/[gamma33-P]ATP as substrate after 30 mins
[3] = Leshmanicidal activity against promastigote stage of Leishmania turanica MRHO/MN/08/BZ18 after 72 hrs by alamar blue staining-based fluorescence assay; type: functional
Leishmania major = assay: Leshmanicidal activity against promastigote stage of Leishmania major MHOM/IL/2003/LRC-L1025 […] after 72 hrs by alamar blue staining-based fluorescence assay; type: functional, organism-based; settings: MHOM/IL/2003/LRC-L1025, 72 h
Leishmania donovani = assay: Leshmanicidal activity against promastigote stage of Leishmania donovani MHOM/SD/1962/1S-c12d […] after 72 hrs by alamar blue staining-based fluorescence assay; type: functional, organism-based

SMILES	viability at 72 h, 30 µM ([1]; BJ cells) [%]	inhibition (Leishmania) [%]	IC50 [2] [µM]	IC50 [3] [µM]	IC50 (Leishmania major) [µM]	IC50 (Leishmania donovani) [µM]	viability at 72 h, 30 µM ([1]; bj) [%]
CCOC(=O)c1ccc(Nc2nc(N[C@H](CC)CO)nc3c2ncn3C(C)C)cc1	70.1	5.6	–	–	–	–	–
CC(C)n1cnc2c(NCc3ccc(O)cc3)nc(NCCCO)nc21	84.9	53.3	–	–	–	–	–
CC[C@H](CO)Nc1nc(NCc2ccccc2N)c2ncn(C(C)C)c2n1	95.7	9.8	–	–	–	–	–
CC[C@H](CO)Nc1nc(NCc2ccc(OC)cc2O)c2ncn(C(C)C)c2n1	82.3	53.1	–	–	–	–	–
CC[C@H](CO)Nc1nc(NCc2cc(C)ccc2O)c2ncn(C(C)C)c2n1	70.4	0.4	0.162	11.8	2.3	2.2	–
CC(C)n1cnc2c(NCc3ccccc3O)nc(NCCCO)nc21	85	10.5	–	–	–	–	–
CC[C@H](CO)Nc1nc(NCc2cccc(C)c2O)c2ncn(C(C)C)c2n1	82.9	3.3	1.65	23	19.8	12.4	–
CC[C@H](CO)Nc1nc(NCc2cc(OC)c(O)c(OC)c2)c2ncn(C(C)C)c2n1	103	8.3	–	–	–	–	–
CC[C@H](CO)Nc1nc(NCc2ccccc2O)c2ncn(C(C)C)c2n1 [OLOMOUCINE II]	79.8	1.8	0.59	11.9	47.2	62.4	–
CC[C@H](CO)Nc1nc(Nc2ccc(S(N)(=O)=O)cc2)c2ncn(C(C)C)c2n1	76.7	2.2	0.214	> 50	–	–	–
CC[C@H](CO)Nc1nc(Nc2ccc(S(=O)(=O)Nc3nc(C)cc(C)n3)cc2)c2ncn(C(C)C)c2n1	105	1.2	–	–	–	–	–
CC(C)n1cnc2c(NCc3ccccc3O)nc(N[C@H]3CC[C@H](N)CC3)nc21	90.4	12.2	–	–	–	–	–
CC(C)n1cnc2c(NCc3ccccc3O)nc(N[C@@H]3CCCC[C@H]3N)nc21	98.7	29.4	–	–	–	–	–
CC[C@H](CO)Nc1nc(NCc2cccc(O)c2O)c2ncn(C(C)C)c2n1	80.1	2.6	0.314	> 50	–	–	–
CC(C)n1cnc2c(NCc3ccccc3)nc(NCCOCCO)nc21	69.9	56.5	–	–	–	–	–
COc1cccc(CNc2nc(N[C@H]3CC[C@H](N)CC3)nc3c2ncn3C(C)C)c1O	87.9	10.8	–	–	–	–	–
CC(C)n1cnc2c(NCc3ccccc3)nc(NC[C@H](O)CN)nc21	74.5	43.2	–	–	–	–	–
CC(C)n1cnc2c(NCc3ccccc3)nc(NC[C@H](C)O)nc21	94.7	53.9	–	–	–	–	–
CC[C@H](CO)Nc1nc(NC(CO)c2ccccc2)c2ncn(C(C)C)c2n1 (stereo not given in full)	102	33.5	–	–	–	–	–
CC(C)n1cnc2c(NCc3ccccc3)nc(NCCN)nc21	95.2	57.5	–	–	–	–	–

SMILES	viability at 72 h, 30 µM ([1]; BJ cells) [%]	inhibition (Leishmania) [%]	IC50 [2] [µM]	IC50 [3] [µM]	IC50 (Leishmania major) [µM]	IC50 (Leishmania donovani) [µM]	viability at 72 h, 30 µM ([1]; bj) [%]
CC(C)n1cnc2c(NCc3ccccc3O)nc(N3CCNCC3)nc21	127	55.6	–	–	–	–	–
CC(C)n1cnc2c(NCc3ccccc3)nc(NCCO)nc21	74.2	66.6	–	–	–	–	–
CC(C)n1cnc2c(NCc3cccc(O)c3)nc(NCCCO)nc21	74.6	64.6	–	–	–	–	–
COc1cccc(CNc2nc(N[C@@H]3CCCC[C@H]3N)nc3c2ncn3C(C)C)c1O	87.4	33.6	–	–	–	–	–
CC(C)n1cnc2c(NCc3ccccc3)nc(N(CCO)CCO)nc21	133	47.1	–	–	–	–	–
CC[C@H](CO)Nc1nc(NCc2ccccc2)c2ncn(C(C)C)c2n1 [SELICICLIB]	106	38.6	–	–	–	–	–
CC(C)n1cnc2c(NCc3ccccc3)nc(NCCCCCC#N)nc21	77.8	49	–	–	–	–	–
CC(C)n1cnc2c(NCc3ccccc3O)nc(NCc3ccccc3O)nc21	97.5	37.8	–	–	–	–	–
CC[C@H](CO)Nc1nc(NCc2cccc(OC)c2O)c2ncn(C(C)C)c2n1	89	2	0.641	35.4	98.5	95.9	–
CC[C@H](CO)Nc1nc(NCc2cccc(O)c2)c2ncn(C(C)C)c2n1	85.6	36.4	–	–	–	–	–
CC(C)n1cnc2c(NCc3ccccc3O)nc(N3CCN(CC#N)CC3)nc21	91.8	71.7	–	–	–	–	–
CC[C@H](CO)Nc1nc(NCc2ccc(O)cc2)c2ncn(C(C)C)c2n1	91.6	21.3	–	–	–	–	–
CC(C)n1cnc2c(NCc3ccccc3)nc(NCCCO)nc21 [BOHEMINE]	–	49.2	–	–	–	–	120
CC[C@H](CO)Nc1nc(Nc2ccc(S(=O)(=O)NC(=N)N)cc2)c2ncn(C(C)C)c2n1	84.4	0.3	0.115	> 50	–	–	–
CC[C@H](CO)Nc1nc(NCc2cc(O)ccc2O)c2ncn(C(C)C)c2n1	97.7	1.5	0.384	> 50	–	–	–
CC[C@H](CO)Nc1nc(NCc2ccc(Br)cc2)c2ncn(C(C)C)c2n1	92.3	10	–	20.1	19.4	16.8	–
CC(C)n1cnc2c(NCc3ccccc3)nc(N)nc21	72.2	87.1	–	–	–	–	–
CC[C@H](CO)Nc1nc(NCc2cc(O)cc(O)c2)c2ncn(C(C)C)c2n1	83.9	15.9	–	–	–	–	–
CC(C)n1cnc2c(NCc3ccccc3)nc(NCCCN)nc21	100	46.2	–	–	–	–	–
